Earlier results in patent US6399047B1, “Benzoxazole derivatives for use in cosmetic compositions and for stabilizing synthetic polymers” (3V Sigma S.p.A., priority 2000, dated 2002).

What was measured:
[1] = background statement
[2] = background statement; remark: listed apart in the source

solubility in solvents usually used in cosmetics [1]: very low
maximum absorption in the UV-A zone [2]: about 325 nm
Structure (SMILES): COc1ccc(C(=O)c2ccccc2)c(O)c1 [2-Hydroxy-4-methoxybenzophenone]
